Data published in patent publication US20070154393A1, “Bioassay for volatile low molecular weight insecticides and methods of use” (priority 2005, published 2007).
Read-outs that look alike come from different tables or passages of the source.

Tests used:
[1] = tested on: Rd1 (Rdl-R) strain of Drosophila (GABA-gated chloride channel point mutation); type: in vivo, Drosophila melanogaster; conditions: Table 2; Rdl-R, 24 hr
Text: Four Drosophila strains were used, all obtained from the Bloomington Drosophila Stock Center (Indiana University; Bloomington, Ind.). The Canton-S strain was used as the insecticide-susceptible standard. The Hikone-R strain is metabolically-resistant with elevated cytochrome P450 levels (Waters et al., 1984; Sundseth et al., 1989; Le Goff et al., 2003; Festucci-Buselli et al., 2005). Hikone-R is resistant to a number of insecticides, including malathion, DDT and neonicotinoids (Sundseth et al., 1989; Daborn et al., 2001). Two resistant neurological-mutant strains were also tested. […] Flies were reared in 100-ml vials capped with acetate plugs (Fisher Scientific; Suwanee, Ga.) on a commercial diet (JAZZ-MIX; Fisher Scientific). Flies were reared on a 12:12 photocycle at 24° C. and 60% relative humidity. Mixed-sex adults, less than 1-wk old, were used in bioassays.
All experimental materials were purchased from Sigma-Aldrich-Fluka (Milwaukee, Wis.) and were of 99% purity or greater. […] All volatile insecticide stocks were prepared at 100 μg/μl in analytical grade acetone. Rather than weigh the highly volatile liquid insecticides (i.e., all compounds except benzothiophene), weight was determined based on the density-volume relationship of each compound. Four serial dilutions were prepared and tested for each insecticide as described previously (Scharf et al., 2006). The insecticide synergists PBO (piperonyl butoxide) and DEF (SSS-tributyl-phosphoro-trithioate) were obtained from Fluka Chemical Co. (Basel, Switzerland) and Mobay Chemical Co. (Kansas City, Mo.). Both synergists were >95% purity. Synergist stocks were prepared at 100 μg/ml in analytical grade acetone.
Volatility bioassays were conducted exactly as described in a previous report (Scharf et al., 2006). Briefly, bioassays took place in 0.5-l glass jars with metal lids. Mixed-sex flies were isolated from lab colonies and placed in 4-ml dram vials in groups of ten, along with a dried piece of laboratory diet. The dram vials were capped with open-top septum caps that were covered with fine mesh (held in place by non-toxic glue). For bioassays, the assembled dram vials were placed into the 0.5-l jars along with a folded filter paper “tent” (Whatman #1; Vineland, N.J.). The filter paper was treated with either an insecticide dilution or acetone, the jar was sealed with the metal lid, and the bioassay proceeded for 24-hr at room temperature. Mortality was scored based on a complete lack of movement by the flies. Four concentrations plus an acetone control were tested for all insecticides. Between five and ten replicates were performed for each concentration range on each strain-insecticide combination. Synergist bioassays were performed with a slight modification. Synergist stocks were applied to dram vials at 100 μl per vial to provide assay concentrations of 10 μg per vial. […] After treatment, vials were held at an angle in a fume hood and rotated ¼-turn each minute until the acetone evaporated. Flies and diet were added as above and held for 1-hr. Assays were initiated, run, and scored as above.
Probit analysis was performed using PROC PROBIT in the SAS software package (SAS Institute; Cary, N.C.). If control mortality ever exceeded 10% in a given replicate, that replicate was discarded. Toxicity and synergist ratios at LC50 were compared statistically using the calculation described by Robertson and Preisler (1992). Using this procedure, ratios with 95% confidence intervals were calculated using a spreadsheet-based program. With this calculation, if confidence intervals include 1.0 then ratios are considered non-significant (p>0.05; Robertson and Preisler, 1992).

[2] = tested on: para-ts1 (para-R) strain of Drosophila (sodium channel point mutation); type: in vivo; conditions: for Slope ± Std. Error (probit mortality line): Table 2, para-R, 24 hr
Protocol: (§1) Four Drosophila strains were used, all obtained from the Bloomington Drosophila Stock Center (Indiana University; Bloomington, Ind.). The Canton-S strain was used as the insecticide-susceptible standard. […] Two resistant neurological-mutant strains were also tested. […] Flies were reared in 100-ml vials capped with acetate plugs (Fisher Scientific; Suwanee, Ga.) on a commercial diet (JAZZ-MIX; Fisher Scientific). […] Mixed-sex adults, less than 1-wk old, were used in bioassays.
(§2) All volatile insecticide stocks were prepared at 100 μg/μl in analytical grade acetone. Rather than weigh the highly volatile liquid insecticides (i.e., all compounds except benzothiophene), weight was determined based on the density-volume relationship of each compound. […] The insecticide synergists PBO (piperonyl butoxide) and DEF (SSS-tributyl-phosphoro-trithioate) were obtained from Fluka Chemical Co. (Basel, Switzerland) and Mobay Chemical Co. (Kansas City, Mo.). […] Synergist stocks were prepared at 100 μg/ml in analytical grade acetone.
(§3) Briefly, bioassays took place in 0.5-l glass jars with metal lids. Mixed-sex flies were isolated from lab colonies and placed in 4-ml dram vials in groups of ten, along with a dried piece of laboratory diet. The dram vials were capped with open-top septum caps that were covered with fine mesh (held in place by non-toxic glue). For bioassays, the assembled dram vials were placed into the 0.5-l jars along with a folded filter paper “tent” (Whatman #1; Vineland, N.J.). The filter paper was treated with either an insecticide dilution or acetone, the jar was sealed with the metal lid, and the bioassay proceeded for 24-hr at room temperature. Mortality was scored based on a complete lack of movement by the flies. Four concentrations plus an acetone control were tested for all insecticides. Between five and ten replicates were performed for each concentration range on each strain-insecticide combination. Synergist bioassays were performed with a slight modification. Synergist stocks were applied to dram vials at 100 μl per vial to provide assay concentrations of 10 μg per vial. […] After treatment, vials were held at an angle in a fume hood and rotated ¼-turn each minute until the acetone evaporated. Flies and diet were added as above and held for 1-hr. Assays were initiated, run, and scored as above.
(§4) Probit analysis was performed using PROC PROBIT in the SAS software package (SAS Institute; Cary, N.C.). If control mortality ever exceeded 10% in a given replicate, that replicate was discarded.

[3] = tested on: metabolically-resistant Hikone-R strain of Drosophila (elevated cytochrome P450); type: in vivo; conditions: Hikone-R, 24 hr
Protocol: as §1, §2, §3, §4

Substance: ethyl formate
- Slope ± Std. Error (probit mortality line) [1]: 6.38 ± 1.91
- Slope ± Std. Error (probit mortality line) [2]: 7.11 ± 1.34
- response of para-ts1 relative to Canton-S (LC50 ratio, FIG. 7B), in words ([2]; significance at p<0.05, method of Robertson and Preisler): non-significant tolerance
- Slope ± Std. Error (probit mortality line) ([3]; Table 2): 12.50 ± 7.10
- Slope ± Std. Error (probit mortality line) ([3]; Table 3, no synergist): 12.50 ± 7.10

Substance: methyl formate
- Slope ± Std. Error (probit mortality line) [1]: 9.41 ± 2.14
- Slope ± Std. Error (probit mortality line) [2]: 8.84 ± 1.46
- Slope ± Std. Error (probit mortality line) ([3]; Table 2): 2.72 ± 0.68
- Slope ± Std. Error (probit mortality line) ([3]; Table 3, no synergist): 2.72 ± 0.68
